From patent publication US8791148B2, “Substituted benzimidazolone derivatives, medicaments comprising them and their use” (AbbVie Deutschland GmbH & Co. KG, priority 2006, dated 2014)

target: T1, human vasopressin V1b receptor (Homo sapiens, UniProt P47901); assay: Vasopressin V1b receptor binding assay; settings: membranes from CHO-K1 cells with stably expressed human V1b receptors; displacement of 1.5 nM 3H-AVP; read-out: V1b receptor affinity (affinity constant Ki)
T1 construct: expressed in transfected cells; host or cells: CHO-K1 (cell line hV1b-3H2_CHO), membrane preparation
T1 sequence (P47901 1-424): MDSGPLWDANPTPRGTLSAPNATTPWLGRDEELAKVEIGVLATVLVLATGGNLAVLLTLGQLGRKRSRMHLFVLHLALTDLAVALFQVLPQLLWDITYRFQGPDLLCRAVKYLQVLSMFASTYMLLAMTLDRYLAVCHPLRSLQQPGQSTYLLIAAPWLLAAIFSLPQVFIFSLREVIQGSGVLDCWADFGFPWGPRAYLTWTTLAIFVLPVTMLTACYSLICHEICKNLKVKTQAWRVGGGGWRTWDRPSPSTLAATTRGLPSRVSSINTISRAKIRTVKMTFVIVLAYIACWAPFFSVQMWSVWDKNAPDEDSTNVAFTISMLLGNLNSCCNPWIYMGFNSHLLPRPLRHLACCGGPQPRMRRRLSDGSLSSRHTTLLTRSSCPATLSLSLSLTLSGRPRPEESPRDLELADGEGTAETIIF
How it was run: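 Membranes expressing human V1b receptor were incubated with radioligand and test compound (2% DMSO final) in 50 mM Tris, 10 mM MgCl2, 0.1% BSA, pH 7.4, for 60 min at room temperature, in triplicate. 1 uM AVP defined nonspecific binding. Bound ligand was separated by filtration and counted by scintillation; Ki came from nonlinear regression.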

| Compound | Ki |
| --- | --- |
| COc1ccc(S(=O)(=O)n2c(=O)n(C(C(=O)N3CCC3)c3ccccc3)c3cc(Cl)ccc32)cc1 (stereo not drawn) [Example 84, 3-(2-Azetidin-1-yl-2-oxo-1-phenylethyl)-5-chloro-1-(4-methoxybenzenesulfonyl)-1,3-dihydrobenzimidazol-2-one] | 500 to 10000 nM |
| COc1ccc(S(=O)(=O)n2c(=O)n(CC(=O)N3CCN(C)CC3)c3cc(Cl)ccc32)cc1 [Example 85, 5-Chloro-1-(4-methoxybenzenesulfonyl)-3-[2-(4-methylpiperazin-1-yl)-2-oxoethyl]-1,3-dihydrobenzimidazol-2-one] | 500 to 10000 nM |
| COc1ccc(S(=O)(=O)n2c(=O)n(CC(=O)N3CCN(C4CCN(C)CC4)CC3)c3cc(Cl)ccc32)cc1 [Example 86, 5-Chloro-1-(4-methoxybenzenesulfonyl)-3-{2-[4-(1-methylpiperidin-4-yl)piperazin-1-yl]-2-oxoethyl}-1,3-dihydrobenzimidazol-2-one] | 500 to 10000 nM |
| COc1ccc(S(=O)(=O)n2c(=O)n(CC(=O)N3CCCCC3)c3cc(Cl)ccc32)cc1 [Example 87, 5-Chloro-1-(4-methoxybenzenesulfonyl)-3-(2-oxo-2-piperidin-1-yl-ethyl)-1,3-dihydrobenzimidazol-2-one] | 500 to 10000 nM |
| COc1ccc(S(=O)(=O)n2c(=O)n(C(C(=O)N3CCC(n4ccnc4)CC3)c3ccccc3)c3cc(Cl)ccc32)cc1 (stereo not drawn) [Example 88, 5-Chloro-3-[2-(4-imidazol-1-ylpiperidin-1-yl)-2-oxo-1-phenylethyl]-1-(4-methoxybenzenesulfonyl)-1,3-dihydrobenzimidazol-2-one] | 500 to 10000 nM |
| COc1ccc(S(=O)(=O)n2c(=O)n(C(C(=O)N3CCN(c4ncncn4)CC3)c3ccccc3)c3cc(Cl)ccc32)cc1 (stereo not drawn) [Example 89, 5-Chloro-1-(4-methoxybenzenesulfonyl)-3-[2-oxo-1-phenyl-2-(4-[1,3,5]triazin-2-ylpiperazin-1-yl)-ethyl]-1,3-dihydrobenzimidazol-2-one] | 500 to 10000 nM |
| COc1ccc(S(=O)(=O)n2c(=O)n(CC(=O)N3CCCC3)c3cc(Cl)ccc32)cc1 [Example 90, 5-Chloro-1-(4-methoxybenzenesulfonyl)-3-(2-oxo-2-pyrrolidin-1-yl-ethyl)-1,3-dihydrobenzimidazol-2-one] | 500 to 10000 nM |
| COc1ccc(S(=O)(=O)n2c(=O)n(C(C(=O)N3CCN(c4cccnc4)CC3)c3ccccc3)c3cc(Cl)ccc32)cc1 (stereo not drawn) [Example 94, 5-Chloro-1-(4-methoxybenzenesulfonyl)-3-[2-oxo-1-phenyl-2-(4-pyridin-3-ylpiperazin-1-yl)ethyl]-1,3-dihydrobenzimidazol-2-one] | 500 to 10000 nM |
| COc1ccc(S(=O)(=O)n2c(=O)n(CC(=O)N3CCC(N4CCN(C)CC4)CC3)c3cc(Cl)ccc32)cc1 [Example 95, 5-Chloro-1-(4-methoxybenzenesulfonyl)-3-{2-[4-(4-methylpiperazin-1-yl)piperidin-1-yl]-2-oxo-ethyl}-1,3-dihydrobenzimidazol-2-one] | 500 to 10000 nM |
| COc1ccc(S(=O)(=O)n2c(=O)n(C(C(=O)N(C)C)c3ccccc3)c3cc(Cl)ccc32)cc1 (stereo not drawn) [Example 97, 2-[6-Chloro-3-(4-methoxybenzenesulfonyl)-2-oxo-2,3-dihydrobenzimidazol-1-yl]-N,N-dimethyl-2-phenylacetamide] | 500 to 10000 nM |
| COc1ccc(S(=O)(=O)n2c(=O)n(C(C(=O)N3CCN(C)CC3)c3ccccc3)c3cc(Cl)ccc32)cc1 (stereo not drawn) [Example 98, 5-Chloro-1-(4-methoxybenzenesulfonyl)-3-[2-(4-methylpiperazin-1-yl)-2-oxo-1-phenylethyl]-1,3-dihydrobenzimidazol-2-one] | 500 to 10000 nM |
| COc1ccc(S(=O)(=O)n2c(=O)n(C(C(=O)N3CCOCC3)c3ccccc3)c3cc(Cl)ccc32)cc1 (stereo not drawn) [Example 99, 5-Chloro-1-(4-methoxybenzenesulfonyl)-3-(2-morpholin-4-yl-2-oxo-1-phenylethyl)-1,3-dihydrobenzimidazol-2-one] | 500 to 10000 nM |
| COc1ccc(S(=O)(=O)n2c(=O)n(C(C(=O)NCc3ccccc3)c3ccccc3)c3cc(Cl)ccc32)cc1 (stereo not drawn) [Example 100, N-Benzyl-2-[6-chloro-3-(4-methoxybenzenesulfonyl)-2-oxo-2,3-dihydrobenzimidazol-1-yl]-2-phenylacetamide] | 500 to 10000 nM |
| COc1ccc(S(=O)(=O)n2c(=O)n(C(C(=O)N3CCCCC3)c3ccccc3)c3cc(Cl)ccc32)cc1 (stereo not drawn) [Example 101, 5-Chloro-1-(4-methoxybenzenesulfonyl)-3-(2-oxo-1-phenyl-2-piperidin-1-ylethyl)-1,3-dihydrobenzimidazol-2-one] | 500 to 10000 nM |
| COc1ccc(S(=O)(=O)n2c(=O)n(C(C(=O)Nc3ccccc3)c3ccccc3)c3cc(Cl)ccc32)cc1 (stereo not drawn) [Example 103, 2-[6-Chloro-3-(4-methoxybenzenesulfonyl)-2-oxo-2,3-dihydrobenzimidazol-1-yl]-2,N-diphenylacetamide] | 500 to 10000 nM |
| CCN(CC)C(=O)C(c1ccccc1)n1c(=O)n(S(=O)(=O)c2ccc(OC)cc2)c2ccc(Cl)cc21 (stereo not drawn) [Example 104, 2-[6-Chloro-3-(4-methoxybenzenesulfonyl)-2-oxo-2,3-dihydrobenzimidazol-1-yl]-N,N-diethyl-2-phenylacetamide] | 500 to 10000 nM |
| COc1ccc(S(=O)(=O)n2c(=O)n(C(C(=O)N3CCN(c4ccccc4)CC3)c3ccccc3)c3cc(Cl)ccc32)cc1 (stereo not drawn) [Example 105, 5-Chloro-1-(4-methoxybenzenesulfonyl)-3-[2-oxo-1-phenyl-2-(4-phenylpiperazin-1-yl)ethyl]-1,3-dihydrobenzimidazol-2-one] | 500 to 10000 nM |

Next, values leading:

| Ki | Compound |
| --- | --- |
| < 100 nM | CCCN1CCN(C2CCN(C(=O)C(c3ccccc3)n3c(=O)n(S(=O)(=O)c4ccc(OC)cc4)c4ccc(I)cc43)C2)CC1 (stereo not drawn) [Example 80, 5-Iodo-1-(4-methoxybenzenesulfonyl)-3-{2-oxo-1-phenyl-2-[3-(4-propylpiperazin-1-yl)pyrrolidin-1-yl]ethyl}-1,3-dihydrobenzimidazol-2-one] |
| 100 to 500 nM | CCCN1CCN(C2CCN(C(=O)C(Cc3ccccc3)n3c(=O)n(S(=O)(=O)c4ccc(OC)cc4)c4ccc(Cl)cc43)C2)CC1 (stereo not drawn) [Example 81, 3-{1-Benzyl-2-oxo-2-[3-(4-propylpiperazin-1-yl)pyrrolidin-1-yl]ethyl}-5-chloro-1-(4-methoxybenzenesulfonyl)-1,3-dihydrobenzimidazol-2-one] |
| 500 to 10000 nM | COc1ccc(S(=O)(=O)n2c(=O)n(C(C(=O)N3CCN(c4ccccn4)CC3)c3ccccc3)c3cc(Cl)ccc32)cc1 (stereo not drawn) [Example 82, 5-Chloro-1-(4-methoxybenzenesulfonyl)-3-[2-oxo-1-phenyl-2-(4-pyridin-2-ylpiperazin-1-yl)ethyl]-1,3-dihydrobenzimidazol-2-one] |
| 500 to 10000 nM | COc1ccc(S(=O)(=O)n2c(=O)n(C(C(=O)N3CCCC3c3ccccc3)c3ccccc3)c3cc(Cl)ccc32)cc1 (stereo not drawn) [Example 83, 5-Chloro-1-(4-methoxybenzenesulfonyl)-3-[2-oxo-1-phenyl-2-(2-phenylpyrrolidin-1-yl)ethyl]-1,3-dihydrobenzimidazol-2-one] |
| < 100 nM | CCCN1CCN(C2CCN(C(=O)C(c3ccccc3)n3c(=O)n(S(=O)(=O)c4ccc(OC)cc4)c4ccc(Cl)cc43)C2)CC1 (stereo not drawn) [Example 91, 5-Chloro-1-(4-methoxybenzenesulfonyl)-3-{2-oxo-1-phenyl-2-[3-(4-propylpiperazin-1-yl)-pyrrolidin-1-yl]ethyl}-1,3-dihydrobenzimidazol-2-one] |
| 100 to 500 nM | COc1ccc(S(=O)(=O)n2c(=O)n(C(C(=O)N3CCC(c4ccncc4)C3)c3ccccc3)c3cc(Cl)ccc32)cc1 (stereo not drawn) [Example 92, 5-Chloro-1-(4-methoxybenzenesulfonyl)-3-[2-oxo-1-phenyl-2-(3-pyridin-4-yl-pyrrolidin-1-yl)ethyl]-1,3-dihydrobenzimidazol-2-one] |
| 100 to 500 nM | COc1ccc(S(=O)(=O)n2c(=O)n(C(C(=O)N3CCCC3C(=O)N(C)C)c3ccccc3)c3cc(Cl)ccc32)cc1 (stereo not drawn) [Example 93, 1-{2-[6-Chloro-3-(4-methoxybenzenesulfonyl)-2-oxo-2,3-dihydrobenzimidazol-1-yl]-2-phenylacetyl}pyrrolidine-2-dimethylcarboxamide] |
| 100 to 500 nM | COc1ccc(S(=O)(=O)n2c(=O)n(C(C(=O)N3CCN(CC4CCCN(C)C4)CC3)c3ccccc3)c3cc(Cl)ccc32)cc1 (stereo not drawn) [Example 96, 5-Chloro-1-(4-methoxybenzenesulfonyl)-3-{2-[4-(1-methylpiperidin-3-ylmethyl)piperazin-1-yl]-2-oxo-1-phenylethyl}-1,3-dihydrobenzimidazol-2-one] |
| 100 to 500 nM | COc1ccc(S(=O)(=O)n2c(=O)n(C(C(=O)N3CCCC3)c3ccccc3)c3cc(Cl)ccc32)cc1 (stereo not drawn) [Example 102, 5-Chloro-1-(4-methoxybenzenesulfonyl)-3-(2-oxo-1-phenyl-2-pyrrolidin-1-ylethyl)-1,3-dihydrobenzimidazol-2-one] |
| < 100 nM | COc1ccc(S(=O)(=O)n2c(=O)n(C(C(=O)N(C)CCN(C)C)c3ccccc3)c3cc(Cl)ccc32)cc1 (stereo not drawn) [Example 106, 2-[6-Chloro-3-(4-methoxybenzenesulfonyl)-2-oxo-2,3-dihydrobenzimidazol-1-yl]-N-(2-dimethylaminoethyl)-N-methyl-2-phenylacetamide] |
